Seven compounds from patent US7919247B2, “Simultaneous quantification of nucleic acids in diseased cells” (Pharmasset, Inc., priority 2000, dated 2011) can be followed below.

Like-named read-outs stand apart in the source and are kept apart here.

In data set [1] the test system is HIV-1 xxBRU (sensitive strain). Kind of data set: endogenous viral RT assay of culture supernatant, HIV-1 infected human PBMC.
Data set [2] concerns HIV-1 xxBRU (sensitive strain). Kind of data set: real-time RT-PCR HIV-1 viral load in culture supernatant, infected human PBMC. A general note: In qPCR the cycle at which signal appears reflects the starting amount.
Data set [3] concerns the target T1, mitochondrial RNA polymerase (Homo sapiens, UniProt O00411).
T1 construct: endogenous in cells; HepG2 inferred from the preceding paragraphs
Nature of the data set: quantitative RT-PCR of mitochondrial COXII RNA calibrated against nuclear RNA transcripts. It is filed as cell-based. Conditions: normalized for no treatment. How it is done: Similar results were also obtained if this technology was carried out in a quantitative reverse-transcriptase-PCR protocol. This approach measures the potential inhibition of antiviral compounds for the mitochondrial RNA polymerase, in comparison with the nuclear RNA polymerases I (generating mainly rRNA transcripts), RNA polymerase II (generating mainly mRNA transcripts), or of lesser importance, RNA polymerase III (generating mainly tRNA transcripts). To obtain such results, amplification of either rRNA, or -actin mRNA as calibrator is required.

Data set [4] deals with T2, mitochondrial DNA polymerase γ (Homo sapiens, UniProt P54098).
T2 sequence (P54098 1-1239): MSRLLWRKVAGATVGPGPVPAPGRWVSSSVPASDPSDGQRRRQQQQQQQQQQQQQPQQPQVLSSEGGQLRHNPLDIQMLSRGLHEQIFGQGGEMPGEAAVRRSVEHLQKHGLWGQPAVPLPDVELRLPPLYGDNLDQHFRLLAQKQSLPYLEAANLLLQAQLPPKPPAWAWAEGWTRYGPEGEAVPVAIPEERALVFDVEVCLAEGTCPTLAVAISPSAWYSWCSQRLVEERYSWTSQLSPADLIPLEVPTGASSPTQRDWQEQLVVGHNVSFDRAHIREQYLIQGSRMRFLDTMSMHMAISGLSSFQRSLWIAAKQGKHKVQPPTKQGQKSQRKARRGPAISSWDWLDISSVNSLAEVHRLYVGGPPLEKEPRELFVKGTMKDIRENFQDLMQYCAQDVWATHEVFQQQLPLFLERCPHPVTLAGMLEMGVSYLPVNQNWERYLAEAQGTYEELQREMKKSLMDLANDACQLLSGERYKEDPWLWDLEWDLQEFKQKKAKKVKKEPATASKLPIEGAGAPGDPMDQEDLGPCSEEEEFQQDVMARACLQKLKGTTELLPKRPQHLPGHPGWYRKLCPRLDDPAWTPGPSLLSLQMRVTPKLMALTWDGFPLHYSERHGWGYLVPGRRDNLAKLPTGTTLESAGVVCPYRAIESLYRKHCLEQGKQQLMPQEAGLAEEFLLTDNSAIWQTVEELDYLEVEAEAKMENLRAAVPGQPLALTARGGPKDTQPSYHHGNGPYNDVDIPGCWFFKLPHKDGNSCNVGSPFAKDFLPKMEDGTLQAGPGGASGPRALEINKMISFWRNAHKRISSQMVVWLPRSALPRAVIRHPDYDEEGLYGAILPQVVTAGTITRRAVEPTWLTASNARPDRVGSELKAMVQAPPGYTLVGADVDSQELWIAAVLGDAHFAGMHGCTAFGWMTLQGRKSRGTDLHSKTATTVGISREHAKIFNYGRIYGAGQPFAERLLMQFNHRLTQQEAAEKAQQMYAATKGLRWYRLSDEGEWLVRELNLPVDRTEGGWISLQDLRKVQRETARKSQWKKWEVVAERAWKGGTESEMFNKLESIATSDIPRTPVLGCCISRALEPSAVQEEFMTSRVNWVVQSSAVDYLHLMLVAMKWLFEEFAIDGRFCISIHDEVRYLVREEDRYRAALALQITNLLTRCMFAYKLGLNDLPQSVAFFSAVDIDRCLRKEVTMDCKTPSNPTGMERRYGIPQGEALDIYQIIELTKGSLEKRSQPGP
T2 sequence (Q9UHN1 26-485 partner limits assumed): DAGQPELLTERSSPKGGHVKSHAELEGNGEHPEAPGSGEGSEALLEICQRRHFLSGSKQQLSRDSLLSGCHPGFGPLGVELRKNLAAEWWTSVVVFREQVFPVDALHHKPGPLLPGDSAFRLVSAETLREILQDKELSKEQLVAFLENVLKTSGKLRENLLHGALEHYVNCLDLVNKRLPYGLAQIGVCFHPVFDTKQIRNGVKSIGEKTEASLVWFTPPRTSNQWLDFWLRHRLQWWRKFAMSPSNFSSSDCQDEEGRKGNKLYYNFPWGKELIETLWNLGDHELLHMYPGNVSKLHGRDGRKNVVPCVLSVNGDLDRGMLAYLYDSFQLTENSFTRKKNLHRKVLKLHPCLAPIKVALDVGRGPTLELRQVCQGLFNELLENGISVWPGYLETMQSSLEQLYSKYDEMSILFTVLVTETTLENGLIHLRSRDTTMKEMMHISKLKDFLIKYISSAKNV

Data set [5] can be described thus: MTS/MTT dye toxicity assay. It counts as cell-based. How it is done: (§1) After a three day-incubation, or 4 for CEM, or 5 days for PBMC, cell viability and mitochondrial activity were measured in a colorimetric assay using the MTS- or MTT dye (Promega, Wis.).
(§2) The cytotoxicity testing as performed here is a standard technique. Briefly, cells are seeded in 96-well plates at various concentrations (dependent on cell type, duration of assay), typically at 5×10^3 cells per well, in the presence of increasing concentrations of the test compound (0, 1, 3, 10, 33, and 100 μM). After a three day-incubation, cell viability and mitochondrial activity are measured by adding the MTS-dye (Promega), followed by a 3 hours incubation. Afterwards the plates containing the dye are read at 490 nm. Such methodologies are well described and available from the manufacturer (Promega).
A general note: Tetrazolium assays rely on reduction of a dye to a coloured formazan, in cell work by metabolically active cells.

The nature of data set [6]: MTS/MTT dye toxicity assay. It is filed as cell-based, human. The conditions noted are these: human. How it is done: as §1, §2
The subject of the next data set is CEM. Nature of the data set: MTS/MTT dye toxicity assay. It is filed as cell-based. Conditions: CEM cells, evaluated up to 100 μM. The method, then:
as §1, §2

The next data set has as its system VERO. Kind of data set: MTS/MTT dye toxicity assay. It is filed as cell-based. Conditions: Vero cells, evaluated up to 100 μM. How it is done: as §1, §2
The subject of another data set is PBMC. Kind of data set: MTS/MTT dye toxicity assay. It counts as cell-based, human. The conditions noted are these: human PBMC, evaluated up to 100 μM. How it is done:
as §1, §2

Data set [7] addresses T2, mitochondrial DNA polymerase γ. Nature of the data set: real-time PCR mitochondrial DNA polymerase toxicity (COXII vs β-actin DNA, comparative Ct) in HepG2 cells. The conditions noted are these: 7-day incubation with up to 10 μM.
[8] abbreviates: xxBRU, RT assay, human PBMC, 5 days.
[9] abbreviates: xxBRU, real-time RT-PCR, human PBMC, 5 days.
Where [10] appears, read: Human immunodeficiency virus 1, PBMC, 120 h.

One may read the EC50 as the concentration at which the effect is half-maximal. A word on the EC90: it is the concentration at which the effect reaches the 90% level. As usually defined, the CC50 is the concentration giving 50% cytotoxicity.

T1 sequence (O00411 42-1230): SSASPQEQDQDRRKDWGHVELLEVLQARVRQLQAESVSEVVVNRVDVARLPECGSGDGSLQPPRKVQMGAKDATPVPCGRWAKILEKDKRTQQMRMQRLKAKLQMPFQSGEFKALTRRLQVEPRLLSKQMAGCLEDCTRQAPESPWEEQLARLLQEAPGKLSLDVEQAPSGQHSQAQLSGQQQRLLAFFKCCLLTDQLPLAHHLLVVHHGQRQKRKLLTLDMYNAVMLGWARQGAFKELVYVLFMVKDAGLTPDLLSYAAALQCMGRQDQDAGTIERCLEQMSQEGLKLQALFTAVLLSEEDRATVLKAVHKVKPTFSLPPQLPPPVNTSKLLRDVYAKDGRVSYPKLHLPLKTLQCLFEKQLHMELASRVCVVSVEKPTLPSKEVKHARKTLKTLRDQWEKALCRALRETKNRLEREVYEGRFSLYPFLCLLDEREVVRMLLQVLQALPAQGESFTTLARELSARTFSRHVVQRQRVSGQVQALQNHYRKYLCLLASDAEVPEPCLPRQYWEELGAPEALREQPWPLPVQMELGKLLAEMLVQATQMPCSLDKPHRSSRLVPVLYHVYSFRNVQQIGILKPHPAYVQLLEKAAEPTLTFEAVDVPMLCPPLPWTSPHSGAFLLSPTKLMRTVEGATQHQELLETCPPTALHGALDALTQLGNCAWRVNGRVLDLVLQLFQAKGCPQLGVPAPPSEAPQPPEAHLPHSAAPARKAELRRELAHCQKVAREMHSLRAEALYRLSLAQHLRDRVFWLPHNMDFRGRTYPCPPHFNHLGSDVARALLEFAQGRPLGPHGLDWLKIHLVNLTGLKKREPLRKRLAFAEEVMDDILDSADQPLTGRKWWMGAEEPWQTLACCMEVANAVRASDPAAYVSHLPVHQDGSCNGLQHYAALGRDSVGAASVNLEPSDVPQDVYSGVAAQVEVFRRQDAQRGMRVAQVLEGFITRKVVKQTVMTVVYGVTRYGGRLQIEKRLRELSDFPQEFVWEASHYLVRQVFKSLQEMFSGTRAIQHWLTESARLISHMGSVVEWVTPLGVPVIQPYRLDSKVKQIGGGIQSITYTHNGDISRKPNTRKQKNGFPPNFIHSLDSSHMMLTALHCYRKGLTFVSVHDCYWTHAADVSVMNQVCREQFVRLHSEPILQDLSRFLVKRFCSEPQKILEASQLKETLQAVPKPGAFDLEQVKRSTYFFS

As for `Nc1ccn([C@@H]2CS[C@H](CO)O2)c(=O)n1` [3TC], the EC50 in data set [1] (setting [8]) was 18 nM; in data set [2] (setting [9]), 30 nM. Besides, the EC90 in [1] (setting [8]) is 77 nM; in data set [2] (setting [9]), 120 nM.

Take `Nc1ccn([C@H]2CC[C@@H](CO)O2)c(=O)n1` [D-DDC]: in data set [3], the “mitochondrial (COXII) RNA levels” value is listed as “significant reduction in mitochondrial RNA levels”. For the same compound, the “mitochondrial DNA reduction as compared to the no-drug control” value in data set [4] was “dose-dependent reduction in mitochondrial DNA synthesis”.

For the compound `Cc1cn([C@H]2C=C[C@@H](CO)O2)c(=O)[nH]c1=O` [d4T], in data set [1] (setting [8]), the response was half-maximal at 3.4 nM (EC50) and the EC90 is 130 nM. In [2] (setting [9]), this compound displayed an EC50 of 2.7 nM and an EC90 of 120 nM.

As for (−)-FTC [(-) FTC], the “mitochondrial (COXII) RNA levels” value in [3] is reported as “did not affect the COXII RNA levels”. In addition, in [4], the “mitochondrial DNA reduction as compared to the no-drug control” value was “does not induce any significant mitochondrial DNA reduction”. The EC50 in data set [1] (setting [8]) is 11 nM; in data set [2] (setting [9]) it was 5.9 nM. In addition, the EC90 in [1] (setting [8]) stood at 50 nM; in [2] (setting [9]), 88 nM.

Take `Nc1ccn([C@@H]2S[C@H](CO)C=C2F)c(=O)n1` [β-D-d4-2′F-(4-S-pentenyl)-C]: in data set [5] (African green monkey), the CC50 at 3 days was > 100000 nM. For the same compound, in data set [5] (human), the CC50 at 3 days was > 100000 nM and the CC50 at 4 days is > 100000 nM. Moreover, the CC50 at 5 days in [6] is > 100000 nM. In data set [1] (setting [10]), this compound gave an EC50 of 5980 nM and an EC90 of 23200 nM. In data set [2] (setting [10]), the response was half-maximal at 2680 nM (EC50) and the EC90 turned out to be 18100 nM.

Regarding `Nc1ccn([C@H]2S[C@@H](CO)C=C2F)c(=O)n1` [β-L-d4-2′F-(4-S-pentenyl)-C], the CC50 at 3 days in [5] (African green monkey, VERO, read-out: CC50) is > 100000 nM; in data set [5] (human, HepG2, read-out: CC50), > 100000 nM. Further, the CC50 at 4 days in [5] (human, CEM, read-out: CC50) was > 100000 nM. Also, the “cytotoxicity in MTS-dye assay” value in the data set on CEM, in the data set with VERO and in the data set on PBMC was “no cytotoxicity was observed” each time. For the same compound, the CC50 at 5 days in data set [6] (PBMC, read-out: CC50) was > 100000 nM. Also, the EC50 came out at 1610 nM in data set [1] (setting [10]) and 400 nM in [2] (setting [10]). Besides, the EC90 was 11600 nM in data set [1] (setting [10]) and 2680 nM in data set [2] (setting [10]). Besides, in data set [7], the “mitochondrial toxicity (γ-DNA polymerase inhibition)” value is recorded as “no toxicity”.

On to `Cc1cn([C@H]2C[C@H](N=[N+]=[N-])[C@@H](CO)O2)c(=O)[nH]c1=O` [AZT], for which the EC50 in data set [1] (setting [8]) came out at 3.4 nM; in data set [2] (setting [9]), 3.9 nM. The EC90 stood at 34 nM in data set [1] (setting [8]) and 36 nM in data set [2] (setting [9]).
